From publication PMC8605905 (Oxidative Medicine and Cellular Longevity, 2021)
“Also recorded” adds a separate entry of the source.

What was measured:
Format in all cases: cell-based, Human
Aβ-GFP SH-SY5Y cells [1] = assay: High content analysis of neurite outgrowth in Aβ-GFP cells; settings: inhibitor 10 μM on day 6, LM-021 5 μM
Method: (§1) On day 1, Aβ-GFP or ∆K280 tauRD-DsRed SH-SY5Y cells were plated into 24-well plates (6 × 10^4/well) followed by addition of retinoic acid. On day 2, cells were treated with coumarin-chalcone derivatives (5 or 10 μM) and with doxycycline (5 or 2 μg/ml) to induce the expression of Aβ-GFP or ∆K280 tauRD-DsRed. On day 8, 4% paraformaldehyde, 0.1% Triton X-100, and 3% BSA were used to fix, permeabilize, and block cells, respectively. Subsequently, the cells were stained with TUBB3 (neuronal class III β-tubulin) primary antibody (1 : 1000; Covance, Princeton, NJ, USA) at 4°C overnight. Goat anti-rabbit Alexa Fluor 555 secondary antibody (1 : 1000; Thermo Fisher Scientific) was then added, followed by a 3 h incubation at room temperature. Following staining nuclei with 4′,-6-diamidino-2-phenylindole (DAPI) (0.1 μg/ml; Sigma-Aldrich), the neurons were imaged by using the HCA system and analysed by using the Neurite Outgrowth Application Module (MetaXpress; Molecular Devices).
(§2) To monitor the cAMP-mediated signal transduction pathway, CRE-GFP 293 cells in 6-well plates (1 × 10^6/well) were pretreated with kinase inhibitor H-89 (LC Laboratories, Woburn, MA, USA), KN-62 (Cayman Chemical, Ann Arbor, MI, USA), U0126 (LC Laboratories), or wortmannin (LC Laboratories) (10 μM) for 4 h before forskolin or LM-021 (10 μM) addition for 5 h. GFP fluorescence/protein and total/phosphorylated PKA, CaMKII, ERK, PI3K, and CREB levels were examined. In addition, Aβ-GFP or ∆K280 tauRD-DsRed SH-SY5Y cells were treated with retinoic acid (10 μM) on day 1, followed by the addition of LM-021 (5 or 10 μM) and doxycycline (5 or 2 μg/ml) on day 2, as described. Kinase inhibitors (10 μM) were added on day 6. On day 8, the cells were collected for protein expression analysis of BDNF, BCL2 (BCL2 apoptosis regulator), and BAX (BCL2 associated X, apoptosis regulator), and total/phosphorylated PKA, CaMKII, ERK, PI3K, and CREB. Also, cells were stained with DAPI and assessed for neurite outgrowth as described above.

Aβ-GFP SH-SY5Y cells [2] = assay: Western blot in Aβ-GFP SH-SY5Y cells; settings: inhibitor 10 μM on day 6, LM-021 5 μM
Method: as §2
(§3) Total proteins from CRE-GFP 293 and Aβ-GFP, ∆K280 tauRD-DsRed SH-SY5Y cells were extracted using lysis buffer (50 mM Tris-HCl (pH 8.0), 150 mM NaCl, 1 mM EDTA (pH 8.0), 1 mM EGTA (pH 8.0), 0.1% SDS, 0.5% sodium deoxycholate, 1% Triton X-100) containing phosphatase and protease inhibitor cocktails (Sigma-Aldrich). Protein concentrations were measured using a protein assay kit (Bio-Rad, Hercules, CA, USA), and 20 μg of proteins was separated with 10% SDS-PAGE and blotted onto polyvinylidene difluoride (PVDF) membranes (Sigma-Aldrich). After blocking, the membrane blot was incubated with primary antibody against GFP (1 : 500; Santa Cruz Biotechnology, Santa Cruz, CA, USA), PKA (1 : 1000; R&D Systems, Minneapolis, MN, USA), p-PKA (T197) (1 : 1000; Cell Signaling, Danvers, MA, USA), ERK (1 : 500; Cell Signaling), p-ERK (T202/Y204) (1 : 500; Cell Signaling), CaMKII (1 : 1000; Santa Cruz Biotechnology), p-CaMKII (T286) (1 : 1000; Cell Signaling), CREB (1 : 1000; Santa Cruz Biotechnology), p-CREB (S133) (1 : 1000; Millipore, Billerica, MA, USA), BDNF (1 : 500; Santa Cruz Biotechnology), BCL2 (1 : 500; BioVision), BAX (1 : 500; BioVision), GAPDH (glyceraldehyde-3-phosphate dehydrogenase, as a loading control) (1 : 1000; MDBio, Taipei, Taiwan), or β-tubulin (1 : 1000, Sigma-Aldrich, as a loading control). The immune complexes were visualized using horseradish peroxidase-conjugated goat anti-mouse or goat anti-rabbit IgG antibody (1 : 5000, GeneTex, Irvine, CA, USA) and a chemiluminescent substrate (Millipore).

[3] = system: ∆K280 tauRD-DsRed SH-SY5Y cells; assay: Western blot in ΔK280 tauRD-DsRed SH-SY5Y cells; settings: inhibitor 10 μM on day 6, LM-021 10 μM
Method: as §2, §3

[4] = system: ∆K280 tauRD-DsRed SH-SY5Y cells; assay: High content analysis of neurite outgrowth in ΔK280 tauRD-DsRed cells; settings: inhibitor 10 μM on day 6, LM-021 10 μM
Method: as §1, §2

CRE-GFP 293 cells [5] = assay: Western blot in CRE-GFP 293 cells; settings: inhibitor 10 μM, LM-021 10 μM, without Ca2+ ionophore, immunoblot
Method: as §2
Total proteins from CRE-GFP 293 and Aβ-GFP, ∆K280 tauRD-DsRed SH-SY5Y cells were extracted using lysis buffer (50 mM Tris-HCl (pH 8.0), 150 mM NaCl, 1 mM EDTA (pH 8.0), 1 mM EGTA (pH 8.0), 0.1% SDS, 0.5% sodium deoxycholate, 1% Triton X-100) containing phosphatase and protease inhibitor cocktails (Sigma-Aldrich). Protein concentrations were measured using a protein assay kit (Bio-Rad, Hercules, CA, USA), and 20 μg of proteins was separated with 10% SDS-PAGE and blotted onto polyvinylidene difluoride (PVDF) membranes (Sigma-Aldrich). […]

CRE-GFP 293 cells [6] = assay: CRE-GFP 293 reporter cell assay (flow cytometry); settings: for Effect of kinase inhibitor on LM-021-activated GFP levels: inhibitor 10 μM 4 h before LM-021 10 μM, presence or absence of Ca2+ ionophore
Source text: Using the pCRE-MetLuc2-Reporter plasmid (Clontech, Mountain View, CA, USA) as a template, the DNA fragment containing the cAMP response element (CRE) motifs and TATA-like promoter (PTAL) flanked by MluI and AgeI restriction sites was amplified by PCR using sense ([…], MluI site underlined) and antisense ([…], AgeI site underlined) primers. The amplified CRE-PTAL promoter fragment was cloned into pGEM-T Easy (Promega, Madison, WI, USA) and sequenced. The CRE-PTAL-containing MluI/AgeI fragment and GFP-containing AgeI/NotI fragment (from pEGFP-N1; Clontech) were subcloned into MluI- and NotI-digested pcDNA5/FRT/TO (Novagen, Madison, WI, USA). The resulting construct with CRE-PTAL-driving GFP was used to establish 293 GFP reporter cells by targeting insertion into Flp-In-293 cells according to the supplier's instructions (Invitrogen). The cells were grown in a medium containing 5 μg/ml blasticidin and 100 μg/ml hygromycin.
On day 1, CRE-GFP 293 cells were seeded into 48-well plates (5 × 10^4/well). After 24 h, cells were treated with Ca^2+ ionophore (2 μM) (Sigma-Aldrich) for 0–24 h. Cell viability was measured using 3,(4,5-dimethylthiazol-2-yl)-2,5-diphenyltetrazolium bromide (MTT) assay (Sigma-Aldrich). The absorbance of the insoluble purple formazan dye was quantified at 570 nm on a μQuant microplate spectrophotometer (Bio-Tek). In addition, the cells were treated with the Ca^2+ ionophore A23187 (0.5–10 μM) (Sigma-Aldrich) for 5 h, followed by analysis of GFP fluorescence by flow cytometry (Becton–Dickinson, Franklin Lakes, NJ, USA) with excitation/emission wavelengths at 488/507 nm. To monitor CREB activation, cells were treated with forskolin or coumarin-chalcone derivatives (5–10 μM) in the presence or absence of Ca^2+ ionophore (2 μM) for 5 h, and GFP fluorescence was analysed.
as §2

| Structure (SMILES) | Effect of kinase inhibitor on LM-021-improved neurite length, processes, and branches (Aβ-GFP SH-SY5Y cells [1]) | Effect of kinase inhibitor on LM-021-upregulated kinase phosphorylation (Aβ-GFP SH-SY5Y cells [2]) | Effect of kinase inhibitor on LM-021 increase in p-CREB, pro-BDNF, m-BDNF, and BCL2 (Aβ-GFP SH-SY5Y cells [2]) | Effect of kinase inhibitor on LM-021-upregulated kinase phosphorylation [3] | Effect of kinase inhibitor on LM-021 upregulation of p-CREB, pro-BDNF, m-BDNF, and BCL2 [3] | Effect of kinase inhibitor on LM-021-ameliorated neurite length and branch length [4] | Effect of kinase inhibitor on increased p-CREB and GFP protein levels (CRE-GFP 293 cells [5]) | Effect of kinase inhibitor on LM-021-activated GFP levels (CRE-GFP 293 cells [6]) | Effect of kinase inhibitor on forskolin-activated GFP level (CRE-GFP 293 cells [6]; inhibitor 10 μM 4 h before forskolin 10 μM, presence of Ca2+ ionophore) |
| --- | --- | --- | --- | --- | --- | --- | --- | --- | --- |
| O=S(=O)(NCCNC/C=C/c1ccc(Br)cc1)c1cccc2cnccc12 [H-89] | counteracted these improvements | mitigated the increase of p-PKA | attenuated the increase | reduced the upregulation of p-PKA | attenuated the upregulation | reversed these effects | significantly reduced | attenuated the GFP levels | attenuated the GFP level |
| CN([C@@H](Cc1ccc(OS(=O)(=O)c2cccc3cnccc23)cc1)C(=O)N1CCN(c2ccccc2)CC1)S(=O)(=O)c1cccc2cnccc12 [KN-62] | counteracted these improvements | mitigated the upregulation of p-CaMKII; also recorded: normalized p-ERK | attenuated the increase | diminished the increase of p-CaMKII | attenuated the upregulation | reversed these effects | significantly reduced | attenuated the GFP levels |  |
